Source: the OligoGym collection
Bases are written 5' to 3'; sugars and linkages follow in the same order, as letters with counts (s phosphorothioate, o phosphodiester; PS: all linkages phosphorothioate). The collection does not say whether C is 5-methylated. l = locked nucleic acid (LNA); d = 2'-deoxy (DNA)

These sequences were tested against Tau (assay: rat primary cortical neurons, FLIPR, 25 uM ASO).

**Q.** How did the calcium oscillation score turn out when GGCTTTGGCGTTCTCG (sugars l3 d10 l3, PS) was run?
**A.** 1.35 % of control

**Q.** How did the calcium oscillation score turn out when “GGGACCCAATCTTCGACTGG (sugars l3 d14 l3, PS)” was run?
**A.** 0 % of control

**Q.** With GGGACGTGGGTGATAT (sugars l3 d10 l3, PS) as the sequence, how does the calcium oscillation score read?
**A.** 27.6 % of control

**Q.** Which calcium oscillation score does the source give for “GGGACGTGGGTGATATTGTC (sugars l3 d14 l3, PS)” here?
**A.** 0 % of control

**Q.** Which calcium oscillation score does the source give for “GGGAGATTCTTTCAGGCCAG (sugars l3 d14 l3, PS)” here?
**A.** 48.1 % of control

**Q.** GGGAGGCAGACACCTC (sugars l3 d10 l3, PS) was tested. Which calcium oscillation score did it give?
**A.** 42.8 % of control

**Q.** For “GGGAGGCAGACACCTCGTCA (sugars l3 d14 l3, PS)”, which calcium oscillation score is on record?
**A.** 102 % of control

**Q.** Which calcium oscillation score does the source give for “GGGCCTGATCACAAACCCTG (sugars l3 d14 l3, PS)” here?
**A.** 42.7 % of control

**Q.** With GGGCGAGTCTACCATG (sugars l3 d10 l3, PS) as the sequence, how does the calcium oscillation score read?
**A.** 16.3 % of control

**Q.** “GGGCGAGTCTACCATGTCGA (sugars l3 d14 l3, PS)” was tested. Which calcium oscillation score did it give?
**A.** 66 % of control

**Q.** For “GGGTGATATTGTCCAGGGAC (sugars l3 d14 l3, PS)”, which calcium oscillation score is on record?
**A.** 0 % of control

**Q.** Which calcium oscillation score does the source give for GGTCAACTGGTTTGTA (sugars l3 d10 l3, PS) here?
**A.** 55.6 % of control

**Q.** “GGTCAACTGGTTTGTAGACT (sugars l3 d14 l3, PS)” was tested. Which calcium oscillation score did it give?
**A.** 6.9 % of control

**Q.** GGTCTGAGCTACCAGG (sugars l3 d10 l3, PS) was tested. Which calcium oscillation score did it give?
**A.** 14.8 % of control

**Q.** With GGTCTGGCATGGGC (sugars l3 d8 l3, PS) as the sequence, how does the calcium oscillation score read?
**A.** 0 % of control

**Q.** GGTCTGGCATGGGCA (sugars l3 d9 l3, PS) was tested. Which calcium oscillation score did it give?
**A.** 59 % of control

**Q.** Which calcium oscillation score does the source give for GGTGATATTGTCCAGG (sugars l3 d10 l3, PS) here?
**A.** 18.5 % of control

**Q.** Which calcium oscillation score does the source give for “GGTGATATTGTCCAGGGACC (sugars l3 d14 l3, PS)” here?
**A.** 0 % of control

**Q.** GGTGCTCTGGTCAA (sugars l3 d8 l3, PS) was tested. Which calcium oscillation score did it give?
**A.** 102 % of control

**Q.** With GGTGCTCTGGTCAAGG (sugars l3 d10 l3, PS) as the sequence, how does the calcium oscillation score read?
**A.** 14.9 % of control

**Q.** Which calcium oscillation score does the source give for “GGTTAAGTGATTAACCAATT (sugars l3 d14 l3, PS)” here?
**A.** 157 % of control

**Q.** How did the calcium oscillation score turn out when “GGTTAGCCCTAAAGTCCCAG (sugars l3 d14 l3, PS)” was run?
**A.** 37.3 % of control

**Q.** Which calcium oscillation score does the source give for GGTTGGATCAGAGGGT (sugars l3 d10 l3, PS) here?
**A.** 7.41 % of control

**Q.** “GGTTTATGATGGATGTTGCC (sugars l3 d14 l3, PS)” was tested. Which calcium oscillation score did it give?
**A.** 26.6 % of control

**Q.** For GGTTTGTAGACTATT (sugars l3 d9 l3, PS), which calcium oscillation score is on record?
**A.** 0 % of control

**Q.** How did the calcium oscillation score turn out when “GGTTTGTAGACTATTTGCAC (sugars l3 d14 l3, PS)” was run?
**A.** 0 % of control

**Q.** For GTAACCAACTTTCATC (sugars l3 d9 l4, PS), which calcium oscillation score is on record?
**A.** 74.8 % of control

**Q.** How did the calcium oscillation score turn out when “GTAACCAACTTTCATCT (sugars l2 d12 l3, PS)” was run?
**A.** 78.7 % of control

**Q.** GTAGACTATTTGCA (sugars l3 d8 l3, PS) was tested. Which calcium oscillation score did it give?
**A.** 105 % of control

**Q.** For GTAGACTATTTGCAC (sugars l3 d9 l3, PS), which calcium oscillation score is on record?
**A.** 95.2 % of control

**Q.** How did the calcium oscillation score turn out when “GTAGACTATTTGCACACTGC (sugars l3 d14 l3, PS)” was run?
**A.** 11.1 % of control

**Q.** With “GTATCCAGCCATATTTCAAC (sugars l3 d14 l3, PS)” as the sequence, how does the calcium oscillation score read?
**A.** 36.7 % of control

**Q.** How did the calcium oscillation score turn out when GTCAACTGGTTTGT (sugars l3 d8 l3, PS) was run?
**A.** 89.4 % of control

**Q.** Which calcium oscillation score does the source give for GTCAATTTAAATGGA (sugars l3 d9 l3, PS) here?
**A.** 66.7 % of control

**Q.** How did the calcium oscillation score turn out when GTCACCACTTTAATCT (sugars l4 d9 l3, PS) was run?
**A.** 85.3 % of control

**Q.** With GTCACCTTGCTCAGGT (sugars l3 d10 l3, PS) as the sequence, how does the calcium oscillation score read?
**A.** 7.67 % of control

**Q.** GTCAGCTAGCGTGGCG (sugars l3 d10 l3, PS) was tested. Which calcium oscillation score did it give?
**A.** 27.6 % of control

**Q.** With GTCATCGCTTCCAGTC (sugars l3 d10 l3, PS) as the sequence, how does the calcium oscillation score read?
**A.** 85.7 % of control

**Q.** With “GTCCAAACTTTTACTCT (sugars l4 d11 l2, PS)” as the sequence, how does the calcium oscillation score read?
**A.** 75.7 % of control

**Q.** How did the calcium oscillation score turn out when “GTCCACAAACCAACTCA (sugars l3 d11 l3, PS)” was run?
**A.** 91.3 % of control

**Q.** With “GTCCAGGGACCCAATCTTCG (sugars l3 d14 l3, PS)” as the sequence, how does the calcium oscillation score read?
**A.** 0 % of control

**Q.** “GTCCCCCAAAATATCTC (sugars l3 d12 l2, PS)” was tested. Which calcium oscillation score did it give?
**A.** 72.1 % of control

**Q.** For GTCCCGAGCCAAAG (sugars l3 d8 l3, PS), which calcium oscillation score is on record?
**A.** 0 % of control

**Q.** How did the calcium oscillation score turn out when GTCCCGAGCCAAAGC (sugars l3 d9 l3, PS) was run?
**A.** 31.3 % of control

**Q.** Which calcium oscillation score does the source give for GTCCCGAGCCAAAGCC (sugars l3 d10 l3, PS) here?
**A.** 31.3 % of control

**Q.** Which calcium oscillation score does the source give for GTCCCGTCTTTGCTTT (sugars l3 d10 l3, PS) here?
**A.** 31.3 % of control

**Q.** How did the calcium oscillation score turn out when GTCCTAATCCTGTGC (sugars l3 d9 l3, PS) was run?
**A.** 36.5 % of control

**Q.** Which calcium oscillation score does the source give for GTCCTAATCCTGTGCT (sugars l3 d10 l3, PS) here?
**A.** 87.8 % of control

**Q.** How did the calcium oscillation score turn out when “GTCCTCACTTTACACATT (sugars l3 d13 l2, PS)” was run?
**A.** 41 % of control

**Q.** How did the calcium oscillation score turn out when GTCGATGCTGCCGG (sugars l3 d8 l3, PS) was run?
**A.** 36.5 % of control

**Q.** GTCGATGCTGCCGGTG (sugars l3 d10 l3, PS) was tested. Which calcium oscillation score did it give?
**A.** 0 % of control

**Q.** For “GTCTACCATGTCGATGCTGC (sugars l3 d14 l3, PS)”, which calcium oscillation score is on record?
**A.** 23.2 % of control

**Q.** How did the calcium oscillation score turn out when GTCTCAAATCAAACTA (sugars l4 d8 l4, PS) was run?
**A.** 60.6 % of control

**Q.** With GTCTGAGCTACCAGGA (sugars l3 d10 l3, PS) as the sequence, how does the calcium oscillation score read?
**A.** 11.7 % of control

**Q.** GTCTGGCATGGGCAC (sugars l3 d9 l3, PS) was tested. Which calcium oscillation score did it give?
**A.** 62.9 % of control

**Q.** For GTCTGTCTTGGCTTTG (sugars l3 d10 l3, PS), which calcium oscillation score is on record?
**A.** 0 % of control

**Q.** How did the calcium oscillation score turn out when “GTCTTCACATCCCAACT (sugars l4 d11 l2, PS)” was run?
**A.** 82.1 % of control

**Q.** For “GTCTTCCTGAAGGACACCTG (sugars l3 d14 l3, PS)”, which calcium oscillation score is on record?
**A.** 0 % of control

**Q.** Which calcium oscillation score does the source give for GTCTTGGCTTTGGCGT (sugars l3 d10 l3, PS) here?
**A.** 20.9 % of control

**Q.** How did the calcium oscillation score turn out when “GTCTTTATTAACACTCC (sugars l4 d11 l2, PS)” was run?
**A.** 63.3 % of control

**Q.** Which calcium oscillation score does the source give for “GTCTTTGCTTTTACTGACCA (sugars l3 d14 l3, PS)” here?
**A.** 44.4 % of control

**Q.** With GTGACAGAAGAGACGT (sugars l3 d10 l3, PS) as the sequence, how does the calcium oscillation score read?
**A.** 0 % of control

**Q.** With GTGATATTGTCCAGGG (sugars l3 d10 l3, PS) as the sequence, how does the calcium oscillation score read?
**A.** 14.8 % of control

**Q.** How did the calcium oscillation score turn out when “GTGATATTGTCCAGGGACCC (sugars l3 d14 l3, PS)” was run?
**A.** 0 % of control

**Q.** For GTGATGCAGGAGTT (sugars l3 d8 l3, PS), which calcium oscillation score is on record?
**A.** 64.8 % of control

**Q.** GTGATGCAGGAGTTGT (sugars l3 d10 l3, PS) was tested. Which calcium oscillation score did it give?
**A.** 13.5 % of control

**Q.** For “GTGATTAACCAATTAACCGA (sugars l3 d14 l3, PS)”, which calcium oscillation score is on record?
**A.** 6.48 % of control

**Q.** For GTGGCGGTGACTGCGA (sugars l3 d10 l3, PS), which calcium oscillation score is on record?
**A.** 62.6 % of control

**Q.** With “GTGGGTGATATTGTCCAGGG (sugars l3 d14 l3, PS)” as the sequence, how does the calcium oscillation score read?
**A.** 0 % of control

**Q.** GTGTTTGATATTATCC (sugars l3 d10 l3, PS) was tested. Which calcium oscillation score did it give?
**A.** 46.7 % of control

**Q.** Which calcium oscillation score does the source give for GTTAACTCATCAACAC (sugars l4 d9 l3, PS) here?
**A.** 59 % of control

**Q.** Which calcium oscillation score does the source give for “GTTAACTCATCAACACC (sugars l4 d10 l3, PS)” here?
**A.** 86.6 % of control

**Q.** How did the calcium oscillation score turn out when “GTTAAGTGATTAACCAATTA (sugars l3 d14 l3, PS)” was run?
**A.** 84.3 % of control

**Q.** With GTTAGCCCTAAAGT (sugars l3 d8 l3, PS) as the sequence, how does the calcium oscillation score read?
**A.** 61 % of control

**Q.** How did the calcium oscillation score turn out when GTTAGCCCTAAAGTCC (sugars l3 d10 l3, PS) was run?
**A.** 110 % of control

**Q.** For “GTTAGCCCTAAAGTCCCAGG (sugars l3 d14 l3, PS)”, which calcium oscillation score is on record?
**A.** 27.9 % of control

**Q.** With “GTTATACAGTTGGCCCTACC (sugars l3 d14 l3, PS)” as the sequence, how does the calcium oscillation score read?
**A.** 14.3 % of control

**Q.** How did the calcium oscillation score turn out when GTTGCCTAATGAGCCA (sugars l3 d10 l3, PS) was run?
**A.** 46.1 % of control

**Q.** Which calcium oscillation score does the source give for “GTTGCCTAATGAGCCACACT (sugars l3 d14 l3, PS)” here?
**A.** 59.8 % of control
